These results are taken from ChEMBL document CHEMBL3124826, “Discovery of AMG 232, a potent, selective, and orally bioavailable MDM2-p53 inhibitor in clinical development” (J Med Chem, 2014).

The nature of this data set: Oral bioavailability in cynomolgus monkey. Format: ADME, organism-based, Macaca fascicularis. The settings on record: in vivo.

By bioavailability is commonly meant dose-corrected exposure relative to a reference, in per cent. In turn, `CC(C)[C@@H](CS(=O)(=O)C(C)C)N1C(=O)[C@@](C)(CC(=O)O)C[C@H](c2cccc(Cl)c2)[C@H]1c1ccc(Cl)cc1` [NAVTEMADLIN] gave a bioavailability of 51%.
